{
  "source": "paper PMC10803265",
  "about": "(Nature Medicine, 2023)",
  "key": {"patients": {"tested_on": "patients", "details": "cited from earlier work"}, "[1]": {"tested_on": "non-small cell lung cancer", "details": "cited from earlier work"}, "P-gp": {"tested_on": "P-gp", "design": "method as in GDC-6036 Investigator's Brochure", "details": "in vitro; ref GDC-6036 Investigator's Brochure; cited from earlier work"}, "[2]": {"details": "cited from earlier work"}, "[3]": {"tested_on": "xenograft models of KRAS G12C-positive lung tumors", "design": "method as in GDC-6036 Investigator's Brochure", "details": "nonclinical xenograft models of KRAS G12C-positive lung tumors; ref GDC-6036 Investigator's Brochure; cited from earlier work"}, "[4]": {"tested_on": "pERK, pS6, DUSP6, SPRY4 in KRAS G12C-positive cancer cell lines", "design": "method as in GDC-6036 Investigator's Brochure", "details": "ref GDC-6036 Investigator's Brochure; cited from earlier work"}, "CYP3A4": {"tested_on": "CYP3A4", "design": "method as in GDC-6036 Investigator's Brochure", "details": "human hepatocyte culture; ref GDC-6036 Investigator's Brochure; cited from earlier work"}, "[5]": {"assay": "Divarasib plasma pharmacokinetics, non-compartmental analysis", "format": "in vivo, human", "details": "divarasib 400 mg QD in combination with cetuximab (250 mg/m^2 QW), n=21; C1D8 or C2D1 AUC0-24 / C1D1 AUC0-24; mean ± s.d.", "protocol": "Pharmacokinetic parameters were estimated using non-compartmental analysis of concentration–time data. Plasma samples were evaluated for divarasib using a validated liquid chromatography tandem mass spectrometry assay. […] A stable labeled internal standard was used. Pharmacokinetic non-compartmental analysis was performed with nominal time using Phoenix WinNonlin (Certara USA, version 8.3). Graphical visualization was done using R (version 4.2.0; R Foundation for Statistical Computing). Pharmacokinetic samples at steady state were collected before dose, and at 0.5, 1, 2, 3, 4 and 8 h after dose on cycle 1 day 8 (C1D8) or on cycle 2 day 1 (C2D1)."}, "KRAS G12C [6]": {"tested_on": "KRAS G12C", "design": "method as in earlier work", "details": "in vitro; cited from earlier work"}, "cynomolgus monkeys": {"tested_on": "cynomolgus monkeys", "design": "method as in GDC-6036 Investigator's Brochure", "details": "ref GDC-6036 Investigator's Brochure, cited from earlier work"}, "KRAS G12C [7]": {"tested_on": "KRAS G12C", "details": "single-agent divarasib; patients with detectable KRAS G12C ctDNA at C1D1; cited from earlier work"}, "mice": {"tested_on": "mice", "design": "method as in GDC-6036 Investigator's Brochure", "details": "gavage, attributed to chemical irritation by the higher concentration drug formulation, ref GDC-6036 Investigator's Brochure; cited from earlier work"}, "[8]": {"tested_on": "patients with KRAS G12C-positive CRC", "quoted_text": "Preliminary antitumor activity was determined by the investigator according to RECIST v1.1. […] PFS was defined as the time from first treatment to the first occurrence of disease progression or death from any cause during the study (whichever occurred first)."}, "KRAS G12C-positive CRC": {"tested_on": "KRAS G12C-positive CRC", "details": "single-agent divarasib at 400 mg, patients with CRC; cited from earlier work"}, "BCRP": {"tested_on": "BCRP", "design": "method as in GDC-6036 Investigator's Brochure", "details": "in vitro; ref GDC-6036 Investigator's Brochure; cited from earlier work"}, "[9]": {"details": "AMG 510 all events, n=129, MRTX849 related only, n=17, ref Janne et al. 2019, Hong et al. 2020"}, "[10]": {"details": "Phase I trial, one patient, ref Hong et al. 2020"}, "[11]": {"details": "divarasib 400 mg QD single agent, multiple doses (C1D8 or C2D1), N 76, mean ± s.d."}, "[12]": {"details": "single-agent divarasib at 400 mg"}, "[13]": {"details": "in combination with cetuximab, 29 patients"}},
  "note": "“Also recorded” adds a separate entry of the source. Read-outs that look alike come from different tables or passages of the source.",
  "data": [
    {"smiles": "C=CC(=O)N1CCN(c2nc(=O)n(-c3c(C)ccnc3C(C)C)c3nc(-c4c(O)cccc4F)c(F)cc23)[C@@H](C)C1", "note": "[sotorasib]", "values": [
      {"measurement": "all grade adverse events: diarrhea", "setting": "patients; [9]", "result": 29.5, "unit": "%"},
      {"measurement": "all grade adverse events: nausea", "setting": "patients; [9]", "result": 20.9, "unit": "%"},
      {"measurement": "all grade adverse events: vomiting", "setting": "patients; [9]", "result": 17.8, "unit": "%"},
      {"measurement": "Grade 3 treatment-related increased AST, patients", "setting": "patients; Phase I trial, 3 out of 129, ref Hong et al. 2020", "result": 2.3, "unit": "%"},
      {"measurement": "Grade 3 treatment-related increased ALT, patients", "setting": "patients; Phase I trial, 6 out of 129, ref Hong et al. 2020", "result": 4.7, "unit": "%"},
      {"measurement": "any grade increased ALT, patients", "setting": "patients; Phase I trial, 15 out of 129, ref Hong et al. 2020", "result": 11.6, "unit": "%"},
      {"measurement": "any grade increased AST, patients", "setting": "patients; Phase I trial, 17 out of 129, ref Hong et al. 2020", "result": 13.2, "unit": "%"},
      {"measurement": "Grade 4 treatment-related elevation of ALT, patients", "setting": "patients; [10]", "result": 0.8, "unit": "%"},
      {"measurement": "discontinued treatment because of Grade 3 treatment-related increase in ALT and AST levels, patients", "setting": "patients; [10]", "result": 0.8, "unit": "%"},
      {"measurement": "ORR", "setting": "[1]; phase 2 trial", "result": 37, "unit": "%"},
      {"measurement": "ORR", "setting": "[1]; phase 3 trial", "result": 28, "unit": "%"}
    ]},
    {"smiles": "C=CC(=O)N1CCN(c2nc(OC[C@@H]3CCCN3C)nc3c(F)c(-c4nc(N)cc(C)c4C(F)(F)F)c(Cl)cc23)[C@@H](C)C1", "note": "[divarasib]", "values": [
      {"measurement": "P-gp transporter inhibition", "setting": "P-gp", "result": "inhibit"},
      {"measurement": "AUC0-24", "setting": "[2]; [11]", "result": "9.13 ± 3.16", "unit": "µg·h/mL"},
      {"measurement": "Cmax", "setting": "[2]; [11]", "result": "0.657 ± 0.185", "unit": "µg/mL"},
      {"measurement": "tmax", "setting": "[2]; divarasib 400 mg QD single agent, multiple doses (C1D8 or C2D1), N 76, median (range)", "result": "2.0 (0.5-8.0) hr"},
      {"measurement": "RAUC0-24", "setting": "[2]; divarasib 400 mg QD single agent, n=63, mean ± s.d.", "result": "1.4 ± 0.4", "unit": "fold"},
      {"measurement": "mean half-life", "setting": "[2]; single dose of divarasib 400 mg as a single agent", "result": "17.6 ± 2.7", "unit": "h"},
      {"measurement": "single-agent activity on tumor growth", "setting": "[3]", "result": "inhibits tumor growth"},
      {"measurement": "downstream MAPK pathway components (pERK, pS6) and KRAS target genes (DUSP6, SPRY4)", "setting": "[4]", "result": "inhibited"},
      {"measurement": "confirmed ORR", "setting": "[1]; [12]", "result": 56.4, "unit": "%"},
      {"measurement": "median PFS", "setting": "[1]; [12]", "result": 13.1, "unit": "months"},
      {"measurement": "CYP3A4 mRNA induction", "setting": "CYP3A4", "result": "induce messenger RNA (mRNA)"},
      {"measurement": "CYP3A4 protein levels induction", "setting": "CYP3A4", "result": "not protein levels"},
      {"measurement": "RAUC0-24", "setting": "[5]", "result": "1.2 ± 0.4", "unit": "fold"},
      {"measurement": "potency compared to sotorasib and adagrasib", "setting": "KRAS G12C [6]", "result": "5 to 20", "unit": "times"},
      {"measurement": "clinical signs", "setting": "cynomolgus monkeys; 4-week toxicology studies in cynomolgus monkeys", "result": "gastrointestinal intolerance with retching and vomiting"},
      {"measurement": "hepatic transaminases", "setting": "cynomolgus monkeys; cynomolgus monkeys", "result": "minimal to mild transaminase elevation"},
      {"measurement": "patients with KRAS G12C VAF decline to below 0.5% at C3D1", "setting": "KRAS G12C [7]", "result": 45.7, "unit": "%"},
      {"measurement": "microscopic findings", "setting": "mice", "result": "laryngeal necrosis"},
      {"measurement": "diarrhea leading to divarasib dose reduction, patients", "setting": "[8]; all grade 3", "result": 10.3, "unit": "%"},
      {"measurement": "vomiting leading to divarasib dose reduction, patients", "setting": "[8]; grade 1", "result": 3.4, "unit": "%"},
      {"measurement": "TRAEs leading to divarasib dose interruptions, patients", "setting": "[8]; [13]", "result": 24.1, "unit": "%"},
      {"measurement": "TRAEs leading to divarasib dose modifications (interruption, reduction or withdrawal), patients", "setting": "[8]; [13]", "result": 34.5, "unit": "%"},
      {"measurement": "TRAEs leading to divarasib treatment withdrawals", "setting": "[8]; [13]", "result": "no divarasib treatment withdrawals; also recorded: No patients withdrew"},
      {"measurement": "confirmed ORR", "setting": "KRAS G12C-positive CRC", "result": 35.9, "unit": "%"},
      {"measurement": "median PFS", "setting": "KRAS G12C-positive CRC", "result": 6.9, "unit": "months"},
      {"measurement": "BCRP transporter inhibition", "setting": "BCRP", "result": "inhibit"}
    ]}
  ]
}
